This is an account of results in ChEMBL document CHEMBL1130091, “Synthesis and cytotoxic evaluation of substituted sulfonyl-N-hydroxyguanidine derivatives as potential antitumor agents” (J Med Chem, 1997).

Values after ≈ are worked out from the molar mass of the structure shown.

One assay has as its system TSGH 8302. Briefly: Cytotoxic activity against human tumor TSGH 8302 cell line. It counts as functional, cell-based.
The test system of another assay is COLO 205. Briefly: Cytotoxic activity against human tumor COLO 205 cell line. In kind it is functional, cell-based.
The test system of the next assay is HepG2. Description: Cytotoxic activity against human tumor HepG2 cell line. In kind it is functional, cell-based.
The subject of a further assay is KB. Briefly: Cytotoxic activity against human tumor KB cell line. It counts as functional, cell-based.
Assay [1] deals with MOLT-4. Briefly: Cytotoxic Activity against human tumor MOLT-4 cell line. It counts as functional, cell-based.
The test system of assay [2] is MOLT-4. Briefly: Cytotoxic Activity against human tumor MOLT-4 cell line with 20 micro g/mL. It counts as functional.
Assay [3] concerns Mus musculus. Briefly: Antitumor activity against Murine K1735/M2 Melanoma xenograft expressed as body weight change from day 0 to 20 in mice at dose of 300 mg/kg oral administration. In kind it is functional.
Assay [4] has as its system Mus musculus. Description: Tumor growth inhibition determined at day 20 after tumor transplantation in mice at dose of 300 mg/kg oral administration. It counts as functional. Particulars: 480 h.

For the molecule `O=[N+]([O-])c1cccc(Cl)c1Oc1ccc(S(=O)(=O)N/C(=N\O)Nc2ccc(Cl)cc2)cc1`, the IC50 with TSGH 8302 is 53 µg/mL (≈ 107 µM); in the assay with COLO 205, more than 100 µg/mL; in the assay with HepG2 it was more than 100 µg/mL; in the assay on KB it was 83 µg/mL (≈ 167 µM).
As for `O=S(=O)(N/C(=N\O)Nc1ccc(Cl)cc1)c1cc2ccccc2o1`, the half-inhibitory concentration (IC50) with COLO 205 was more than 200 µg/mL; in the assay with HepG2 it was more than 200 µg/mL; in the assay on KB, 67 µg/mL (≈ 183 µM).
As for `O=S(=O)(N/C(=N\O)Nc1ccc(Cl)cc1)c1cccc2snnc12`, the IC50 with TSGH 8302 worked out at 93 µg/mL (≈ 242 µM); with MOLT-4 [1] it was 33 µg/mL (≈ 86 µM); with COLO 205 it was 87 µg/mL (≈ 227 µM); in the assay on HepG2, 45 µg/mL (≈ 117 µM); in the assay with KB, 35 µg/mL (≈ 91.2 µM).
As for `Cc1c(S(=O)(=O)N/C(=N\O)Nc2ccc(Cl)c(Cl)c2)sc2ccc(Cl)cc12`, the IC50 in the assay on TSGH 8302, with MOLT-4 [1], in the assay with COLO 205, in the assay with HepG2 and in the assay on KB was more than 300 µg/mL each time.
On to `O=S(=O)(NC(=S)Nc1ccc(Cl)cc1)c1cc(S(=O)(=O)c2ccccc2)cs1`, for which the IC50 in the assay on TSGH 8302 is 217 µg/mL (≈ 459 µM); in the assay with COLO 205, 220 µg/mL (≈ 465 µM); with HepG2, 214 µg/mL (≈ 452 µM); in the assay with KB it was 196 µg/mL (≈ 414 µM).
On to `O=S(=O)(N/C(=N\O)Nc1ccc(Cl)cc1)c1cc(-c2ccsc2)no1`, for which the IC50 in the assay with TSGH 8302 was 149 µg/mL (≈ 374 µM); in the assay on MOLT-4 [1], 9 µg/mL (≈ 22.6 µM); in the assay with COLO 205, 52 µg/mL (≈ 130 µM); with HepG2, more than 300 µg/mL; in the assay on KB, 55 µg/mL (≈ 138 µM).
In the case of `Cc1c(S(=O)(=O)/N=C(\S)Nc2ccc(Cl)c(Cl)c2)sc2ccc(Cl)cc12`, the IC50 amounted to 59 µg/mL (≈ 127 µM) with TSGH 8302, 57 µg/mL (≈ 122 µM) with COLO 205, 62 µg/mL (≈ 133 µM) in the assay on HepG2 and 25 µg/mL (≈ 53.7 µM) with KB. Besides, the Inhibition with MOLT-4 [2] stood at 65%.
For `O=S(=O)(N/C(=N\O)Nc1ccc(Cl)cc1)c1ccc(-c2cccs2)cn1`, the IC50 was 208 µg/mL (≈ 509 µM) in the assay with TSGH 8302; 75 µg/mL (≈ 183 µM) with MOLT-4 [1]; 74 µg/mL (≈ 181 µM) in the assay with COLO 205; 121 µg/mL (≈ 296 µM) in the assay with HepG2; 61 µg/mL (≈ 149 µM) in the assay with KB.
Turning to `CCCCOc1ccc(S(=O)(=O)N/C(=N\O)Nc2ccc(Cl)cc2)cc1`, the IC50 in the assay with TSGH 8302 is 37 µg/mL (≈ 93 µM); in the assay with MOLT-4 [1], 18 µg/mL (≈ 45.2 µM); in the assay with COLO 205, 49 µg/mL (≈ 123 µM); with HepG2, 63 µg/mL (≈ 158 µM); in the assay on KB it was 50 µg/mL (≈ 126 µM).
On to `Cc1ccc(S(=O)(=O)N/C(=N\O)Nc2ccc(Cl)c(Cl)c2)cc1`, for which the IC50 amounted to 67 µg/mL (≈ 179 µM) in the assay with TSGH 8302; 7 µg/mL (≈ 18.7 µM) in the assay on MOLT-4 [1]; 10 µg/mL (≈ 26.7 µM) in the assay with COLO 205; 72 µg/mL (≈ 192 µM) with HepG2; 8 µg/mL (≈ 21.4 µM) in the assay with KB.
As to `O=S(=O)(NC(=S)Nc1ccc(Cl)cc1)c1cccc2snnc12`, the IC50 was 42 µg/mL (≈ 109 µM) with TSGH 8302, 50 µg/mL (≈ 130 µM) in the assay on COLO 205, 124 µg/mL (≈ 322 µM) in the assay with HepG2 and 63 µg/mL (≈ 164 µM) in the assay on KB. For the same molecule, the Inhibition in the assay with MOLT-4 [2] is given as 55%.
On to `N#Cc1c(Cl)cccc1Oc1ccc(S(=O)(=O)N/C(=N\O)Nc2ccc(Cl)cc2)cc1`, for which the IC50 in the assay on TSGH 8302 is 168 µg/mL (≈ 352 µM); in the assay with MOLT-4 [1], 95 µg/mL (≈ 199 µM); with COLO 205, 178 µg/mL (≈ 373 µM); in the assay with HepG2 it was more than 300 µg/mL; with KB, 39 µg/mL (≈ 81.7 µM).
`O=S(=O)(NC(=S)Nc1ccc(Cl)cc1)c1ccc(S(=O)(=O)c2ccccc2)s1`: the IC50 in the assay with TSGH 8302 came to 79 µg/mL (≈ 167 µM); in the assay on COLO 205, 65 µg/mL (≈ 137 µM); in the assay with HepG2, 216 µg/mL (≈ 457 µM); in the assay with KB, 66 µg/mL (≈ 140 µM). In the assay on MOLT-4 [2], the Inhibition was 59%.
As to `O=S(=O)(N/C(=N\O)Nc1ccc(Cl)cc1)c1cc(C(F)(F)F)cc(C(F)(F)F)c1`, the IC50 worked out at 66 µg/mL (≈ 143 µM) in the assay with TSGH 8302; 44 µg/mL (≈ 95.3 µM) in the assay with MOLT-4 [1]; 58 µg/mL (≈ 126 µM) with COLO 205; 233 µg/mL (≈ 505 µM) in the assay on HepG2; 57 µg/mL (≈ 123 µM) in the assay with KB.
For the molecule `O=[N+]([O-])c1ccc(Oc2c(Cl)cc(S(=O)(=O)N/C(=N\O)Nc3ccc(Cl)cc3)cc2Cl)c(Cl)c1`, the IC50 in the assay on TSGH 8302 is 7 µg/mL (≈ 12.4 µM); in the assay on MOLT-4 [1], 56 µg/mL (≈ 98.9 µM); in the assay with COLO 205, 6 µg/mL (≈ 10.6 µM); in the assay on HepG2 it was 49 µg/mL (≈ 86.5 µM); in the assay on KB it was 7 µg/mL (≈ 12.4 µM). In the assay on Mus musculus [3], the Body weight change came out at 1.3 g. The inhibition in vivo at 300 mg/kg in the assay with Mus musculus [4] came out at 70.7%.
As to `O=S(=O)(N/C(=N\O)Nc1ccc(Cl)cc1)c1ccc(S(=O)(=O)c2ccccc2)s1`, the IC50 in the assay with TSGH 8302 came out at 41 µg/mL (≈ 86.9 µM); with COLO 205, 59 µg/mL (≈ 125 µM); with HepG2, 92 µg/mL (≈ 195 µM); with KB it was 29 µg/mL (≈ 61.4 µM).
As to `Cc1ccc(S(=O)(=O)N/C(=N\O)Nc2ccc(Cl)cc2)cc1`, the IC50 in the assay on TSGH 8302 is 46 µg/mL (≈ 135 µM); with MOLT-4 [1], 6 µg/mL (≈ 17.7 µM); with COLO 205 it was 58 µg/mL (≈ 171 µM); with HepG2, 49 µg/mL (≈ 144 µM); with KB, 46 µg/mL (≈ 135 µM).
For the molecule `Cc1c(S(=O)(=O)/N=C(\S)Nc2ccc(Cl)cc2)sc2ccc(Cl)cc12`, the IC50 worked out at 55 µg/mL (≈ 127 µM) with TSGH 8302, 52 µg/mL (≈ 121 µM) in the assay on COLO 205, 57 µg/mL (≈ 132 µM) in the assay on HepG2 and 61 µg/mL (≈ 141 µM) in the assay on KB. Moreover, the Inhibition with MOLT-4 [2] is recorded as 12%.
`Cc1ccc(S(=O)(=O)/N=C(\S)Nc2ccc(Cl)c(Cl)c2)cc1`: the IC50 was found to be 55 µg/mL (≈ 147 µM) with TSGH 8302, 45 µg/mL (≈ 120 µM) in the assay on COLO 205, 120 µg/mL (≈ 320 µM) with HepG2 and 41 µg/mL (≈ 109 µM) in the assay with KB. Moreover, the Inhibition in the assay with MOLT-4 [2] is recorded as 39%.
Consider `O=S(=O)(N/C(=N\O)Nc1ccc(Cl)cc1)c1cc(S(=O)(=O)c2ccccc2)cs1`, for which the IC50 with TSGH 8302 is 37 µg/mL (≈ 78.4 µM); with MOLT-4 [1], 22 µg/mL (≈ 46.6 µM); in the assay with COLO 205, 45 µg/mL (≈ 95.3 µM); with HepG2, 175 µg/mL (≈ 371 µM); in the assay with KB, 10 µg/mL (≈ 21.2 µM).
Turning to `Cc1ccc(S(=O)(=O)/N=C(\S)Nc2ccc(Cl)cc2)cc1`, the IC50 in the assay on TSGH 8302 was 125 µg/mL (≈ 367 µM); in the assay with COLO 205 it was 87 µg/mL (≈ 255 µM); in the assay on HepG2, 232 µg/mL (≈ 681 µM); in the assay on KB, 80 µg/mL (≈ 235 µM). Further, the Inhibition in the assay on MOLT-4 [2] turned out to be 59%.
Take `O=S(=O)(N/C(=N\O)Nc1ccc(Cl)cc1)c1ccccc1`: the IC50 was determined as 52 µg/mL (≈ 160 µM) with TSGH 8302; 7 µg/mL (≈ 21.5 µM) with MOLT-4 [1]; 53 µg/mL (≈ 163 µM) with COLO 205; 54 µg/mL (≈ 166 µM) in the assay with HepG2; 46 µg/mL (≈ 141 µM) with KB.
As for `Cc1c(S(=O)(=O)N/C(=N\O)Nc2ccc(Cl)cc2)sc2ccc(Cl)cc12`, the IC50 was determined as 44 µg/mL (≈ 102 µM) in the assay on TSGH 8302; 38 µg/mL (≈ 88.3 µM) in the assay with MOLT-4 [1]; 60 µg/mL (≈ 139 µM) with COLO 205; 140 µg/mL (≈ 325 µM) in the assay on HepG2; 29 µg/mL (≈ 67.4 µM) in the assay with KB.
As for `O=S(=O)(N/C(=N\O)Nc1ccc(Cl)cc1)c1cc2ccccc2s1`, the half-maximal inhibitory concentration (IC50) came out at 76 µg/mL (≈ 199 µM) in the assay with TSGH 8302; 57 µg/mL (≈ 149 µM) with MOLT-4 [1]; 80 µg/mL (≈ 209 µM) in the assay with COLO 205; 176 µg/mL (≈ 461 µM) with HepG2; 55 µg/mL (≈ 144 µM) in the assay on KB.
For `O=S(=O)(NC(=S)Nc1ccc(Cl)cc1)c1ccccc1`, the IC50 was more than 300 µg/mL in the assay with TSGH 8302, 91 µg/mL (≈ 278 µM) in the assay on COLO 205, more than 300 µg/mL in the assay with HepG2 and 66 µg/mL (≈ 202 µM) with KB. This molecule gave an Inhibition in the assay on MOLT-4 [2] of 63%.
In the case of `O=[N+]([O-])c1ccc(Oc2c(Cl)cc(S(=O)(=O)N/C(=N\O)Nc3ccc(Cl)cc3)cc2Cl)cc1`, the IC50 turned out to be 7 µg/mL (≈ 13.2 µM) with TSGH 8302; 55 µg/mL (≈ 103 µM) with MOLT-4 [1]; 12 µg/mL (≈ 22.6 µM) in the assay with COLO 205; 22 µg/mL (≈ 41.4 µM) in the assay on HepG2; 12 µg/mL (≈ 22.6 µM) with KB.
Consider `Cc1ccc(S(=O)(=O)NC(=O)Nc2ccc(Cl)cc2)cc1` [LY-181984], for which the IC50 was 106 µg/mL (≈ 326 µM) in the assay with TSGH 8302, 83 µg/mL (≈ 256 µM) with COLO 205, more than 300 µg/mL in the assay with HepG2 and 72 µg/mL (≈ 222 µM) in the assay on KB. Further, the Inhibition in the assay with MOLT-4 [2] was 33%. The molecule further registered a Body weight change in the assay on Mus musculus [3] of -1.2 g. Moreover, in the assay on Mus musculus [4], the inhibition in vivo at 300 mg/kg worked out at 64.7%.
